The record followed here is US12653862B2, “Anti-senescence compounds and uses thereof” (CLEARA BIOTECH B.V., priority 2020, dated 2026).

The subject of series [1] is colon cancer 3D organoids. The series can be described thus: Colon cancer 3D organoids, live/dead assay, with chemotherapy. In kind it is cell-based. Conditions: for cell death vs cell cycle arrest: colon cancer 3D organoids. As for the experimental part:
(§1) Organoids were grown at 37° C. and 5% CO2 in a humidified incubator. All organoids were cultured in matrigel (Corning) droplets in advanced DMEM/F12 (Lonza) supplemented with 1% glutamax, 1% Penicillin/Streptomycin, 1% (10 mM) HEPES, 10% Noggin conditioned medium, 2% B-27 (50×; (Thermo/Life Technologies), N-acetylcysteine ((Sigma-Aldrich, 1.25 mM)), A83-01 (Tocris, 500 nM) and SB203580 (Invitrogen/Life Technologies, 3 μM). To perform viability and apoptosis assays, the organoids were passaged through resuspension in ice-cold medium, followed by centrifugation in 15 ml tubes at 4° C. The resulting pellet was trypsinized for 5 minutes at 37° C. to obtain single cells and subsequently washed twice with advanced DMEM/F12 media. These cells were then resuspended in Matrigel and plated in 96-well plates in 5 ul droplets. 100 ul fresh medium was added to the wells 15 minutes later. Peptide and chemotherapy treatment was added to the organoids 2 days after plating.
A Live/dead assay was performed on both larger organoids 3 days after peptide and/or chemotherapy treatment, or on organoids that were treated as single cells and allowed to grow out for 2 weeks before the assay was performed. To perform the assay, Calcein-AM (1:1000) and Propidium Iodide (PI; 1:100) were added to the medium of the organoids to detect living and dead cells respectively. The organoids were then imaged on a Zeiss Cell Observer microscope and the signal was quantified using FIJI.

For series [2], the system named is WT colon and tumor progression (TPO) organoids. Nature of the series: Cell viability of WT colon and tumor progression (TPO) organoids. In kind it is cell-based. Conditions: increasing concentrations, measured 5 days later. As for the experimental part: as §1
A further series has as its system IMR90 lung fibroblasts. Nature of the series: Caspase-3/7 apoptosis assay in senescent vs healthy control IMR90 cells. In kind it is cell-based, Human. Conditions: for apoptosis induction by Caspase-3/7 activation, senescent vs healthy control cells: IMR90, FOXO4-DRI as control. How it is done:
(§2) Human IMR90, WI38 and RPE cells were grown in Dulbecco's Modified Eagle's Medium (DMEM; Lonza) containing 10% FCS and 1% pen/strep at 37° C. with 3.0% 02 and 5.0% CO2. To induce senescence, cells were irradiated with 10Gy ionizing radiation (Gammacell 1000) and were left for a minimum of 10 days to become senescent.
(§3) To perform viability and apoptosis assays, cells were split into 96-well plates and treated with peptides 2 days later. Non-senescent and cancer cells were plated 1500 cells/well, while senescent cells were plated at 8.000 cells/well.
(§4) For a caspase assay, Caspase-Glo 3/7 assay reagent (Promega) was added to the medium 2 days after treatment. The plates were then incubated in aluminium foil at room temperature on a shaker for 1 hour and subsequently measured with a Luminescence Plate Reader.

The next series deals with T1, TP53-TAD2 (Homo sapiens, UniProt P04637).
T1 construct: amino acid 37 to 57 (p53-TAD2)
T1 sequence (P04637 37-57 limits assumed): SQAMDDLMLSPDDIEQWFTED
The series can be described thus: Fluorescence polarization with FITC-labeled TP53-TAD2. In kind it is binding. Conditions: FITC-labeled TP53-TAD2 (250 nM), increasing concentrations of peptides. As for the experimental part:
116 μl of a solution of the specific peptides (ranging from 1 to 100 μM) were prepared. […] 35 μl were then transferred in each well of the 384-well plate. Measurements were performed in triplicates.
Data was acquired on a ClarioStar Plus platereader. Endpoint measurement with 200 flashes per well were performed. An excitation filter with 482 nm wavelength and emission filter with 530 nm were used and gain adjustment as well as focal height adjustment were performed for each measurement. Fluorescence intensity, parallel fluorescence polarization and perpendicular fluorescence polarization were recorded.
Data analysis was performed using MARS Version 3.4 (BMG), Microsoft Excel and GraphPad Prism Version 8.

Series [3] is described as follows: Peptide stability in solution. In kind it is physicochemical. How it is done: Both peptides were dissolved in H2O and kept at room temperature. The peptide concentration was determined for the indicated time points.
For the next series, the system named is Caspase-3/7 activation. The series can be described thus: Live imaging of Caspase-3/7 activation over time. In kind it is cell-based. How it is done:
Organoids and IMR90 cells were grown in 96-well cell culture plates and either the 488 IncuCyte Caspase 3/7 Reagent For Apoptosis (Sartorius) or the IncuCyte Caspase 3/7 red apoptosis assay reagent (Essen Bioscience) was added to the wells. Peptides were added directly before the plate was transferred to a Zeiss Cell Observer microscope that contains a Heat and CO2-controlled compartment. Subsequently, live imaging was started where a picture was recorded every 2 hours for 60 hours. Images were processed using Zen imaging software (Zeiss).

For series [4], the system named is GBM8 glioblastoma cells. Nature of the series: Caspase-3/7 activation (apoptosis) in GBM8 glioblastoma cells. In kind it is cell-based. As for the experimental part:
(§5) GBM8 cells were cultured in Dulbecco's Modified Eagle's Medium/Nutrient Mixture F-12 (DMEM F-12), containing high glucose, L-Glutamine, no phenol red, supplemented with 1% (10 mM) HEPES, 1% Penicillin/Streptomycin, 2% B-27 (50×), 5 μg/ml Heparin sodium salt from porcine intestinal mucosa Grade I-A, 20 ng/ml recombinant human Fibroblast Growth Factor (rhFGF) and 20 ng/ml recombinant human Epidermal Growth Factor (rhEGF). These cells were cultured in plastic ware coated with Matrigel Matrix (20× diluted in DMEM F-12) at 37° C., 5% CO2 and 3% O2 in a humified incubator.
as §3, §4

Series [5] relates to GBM8 glioblastoma cells. The series can be described thus: Loss of LDH (cell death) in GBM8 glioblastoma cells. In kind it is cell-based. Conditions: GBM8, vs FOXO4-DRI. As for the experimental part: as §5, §3
In the next series the test system is WI38 cells. Nature of the series: Apoptosis in healthy WI38 cells. In kind it is cell-based, Human. Conditions: FIG. 9C. As for the experimental part: as §2, §3, §4
Series [6] deals with colon carcinoma 3D organoid cultures. Nature of the series: Colon carcinoma 3D organoid cultures. In kind it is cell-based. As for the experimental part: as §1
Series [7] concerns normal wildtype colon organoids. Nature of the series: Normal wildtype colon organoids, with or without APC depletion. In kind it is cell-based. As for the experimental part: as §1
The target in the next series is T2, full-length TP53 (Homo sapiens, UniProt P04637).
T2 construct: endogenous TP53 from lysates ofHEK293T cells; endogenous in cells; host or cells: HEK293T
T2 sequence (P04637 whole entry): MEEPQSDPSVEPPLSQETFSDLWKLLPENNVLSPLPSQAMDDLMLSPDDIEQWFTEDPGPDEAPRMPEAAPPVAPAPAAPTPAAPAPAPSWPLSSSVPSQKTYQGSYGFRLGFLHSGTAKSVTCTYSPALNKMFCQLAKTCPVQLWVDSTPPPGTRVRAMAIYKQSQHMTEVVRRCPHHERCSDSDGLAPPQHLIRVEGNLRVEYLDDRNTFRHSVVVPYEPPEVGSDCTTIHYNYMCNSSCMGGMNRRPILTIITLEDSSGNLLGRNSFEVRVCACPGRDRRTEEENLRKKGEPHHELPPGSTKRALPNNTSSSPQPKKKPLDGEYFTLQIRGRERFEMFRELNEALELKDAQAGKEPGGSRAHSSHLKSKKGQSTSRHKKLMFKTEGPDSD
The series can be described thus: Streptavidin bead pull-down of endogenous TP53 from HEK293T lysates with biotinylated peptide. In kind it is binding. Conditions: streptavidin beads, HEK293T cell lysates, vs FOXO4-DRI.

A further series relates to 3D colon organoids. Nature of the series: Outgrowth of 3D colon organoids after peptide exposure. In kind it is cell-based. As for the experimental part:
as §1
A Live/dead assay was performed on both larger organoids 3 days after peptide and/or chemotherapy treatment, or on organoids that were treated as single cells and allowed to grow out for 2 weeks before the assay was performed. […] The organoids were then imaged on a Zeiss Cell Observer microscope and the signal was quantified using FIJI.

The next series relates to MCF10 cells. The series can be described thus: Caspase assay in senescent human breast epithelial MCF10 cells. Conditions: 2 days, vs FOXO4-DRI/CL03001. In kind it is cell-based. As for the experimental part:
as §4

“Also recorded” adds a separate entry of the source. Where two headings read alike, the source gives them in different places.

Consider `O=c1[nH]cc(F)c(=O)[nH]1` [SFU, 5-fluorouracil, reference compound], for which the “cell death vs cell cycle arrest” value in series [1] was “merely causes a cell cycle arrest”.
Regarding “RKKASSKIEAAILDAFSQNWRRKRPPRRRQRRKKRG (listed as Homo sapiens) [CL04124]”, in series [2], the “cell viability, sensitivity of organoids with colorectal cancer associated mutations” value was “sensitizes to FOXO4-based peptides, dependent on p53”.
As to “RKKASSKIAAAILDAFSQNWRRKR (listed as Homo sapiens) [CL04088]”, the “apoptosis induction by Caspase-3/7 activation, senescent vs healthy control cells” value (from here on “apoptosis induction … vs healthy control cells”) in the series with IMR90 lung fibroblasts is listed as “superior to peptide CL04022”.
As for “RKKASSKIAAAILDAFSQNAWANRRSSCKRP (listed as Homo sapiens) [CL04022]”, in the series on IMR90 lung fibroblasts, the “apoptosis induction … vs healthy control cells” value is reported as “still better than the control”. The “binding of TP53-TAD by fluorescence polarization” value with TP53-TAD2 is on record as “more potent in binding TP53-TAD than the reference compound”. In addition, the “stability, peptide concentration over time” value in [3] (dissolved in H2O, room temperature, multiple days) is “more stable than CL04009”. For the same compound, in [3] (in solution), the stability in solution result is “improved stability in solution”. In addition, the “full Caspase-3/7 activation complete” value with Caspase-3/7 activation is given as 60 h. Also, the “start of Caspase-3/7 activation after administration” value in the series with Caspase-3/7 activation was found to be 24 h. In the series on GBM8 glioblastoma cells [4] (GBM8, vs FOXO4-DRI), the “Caspase3/-7 activation (apoptosis), potency” value is “more potent than FOXO4-DRI”. Besides, the apoptosis induction entry in the series on GBM8 glioblastoma cells [4] (GBM8 glioblastoma cells, FIG. 9C) is “induce apoptosis in GBM8 glioblastoma cells”; in the series with WI38 cells, “not in healthy Wi38 cells”. The “loss of LDH (cell death), potency” value with GBM8 glioblastoma cells [5] is listed as “more potent than FOXO4-DRI”. In addition, the results for the “efficacy against organoid cultures” value in series [6] (one Microsatellite stable (MSS) line) and in [6] (two microsatellite-unstable (MSI) lines) were “ineffective” and “effective”, respectively. The “selectivity, patient-derived colorectal cancers vs healthy control samples” value in [6] (patient-derived samples) was “selective”. Moreover, the potency against organoids entry in series [7] (normal wildtype colon organoids) was “less potency”. Besides, in [7] (organoids depleted for APC), the efficacy against organoids entry is on record as “effective”. Further, the “efficacy in organoids that survived chemotherapy” value in series [1] (after 5′FluoroUracil or Oxaliplatin) is listed as “more effective”. The “cell death vs cell cycle arrest” value in series [1] is listed as “induces cell death, not merely causes a cell cycle arrest”.
As for “RKKASSKIAAAILDAFSQNGWANRRSSCKRP (listed as Homo sapiens) [CL04009]”, the “pull-down of endogenous TP53 (binding to full-length TP53)” value with full-length TP53 is “potent in binding recombinant TP53-TAD2 and full-length TP53”. Moreover, in the series with IMR90 lung fibroblasts, the “apoptosis induction … vs healthy control cells” value is “superior selectivity to induce apoptosis by Caspase-3/7 activation in senescent, but not healthy control IMR90 lung fibroblasts; also recorded: very potent and selective capacity to induce apoptosis in senescent”. Moreover, in the series on IMR90 lung fibroblasts (IMR90, compared with FOXO4-DRI), the “effective concentration (potency)” value is “effective at a lower concentration”. Also, in the series on 3D colon organoids (14 d after exposure), the “tumor outgrowth of organoids” value is recorded as “no more tumor outgrowth”. For the same compound, the “cytotoxic vs cytostatic effect” value with 3D colon organoids (colon organoids) is “cytotoxic on colon organoids and not just cytostatic”. In the series with MCF10 cells, the “apoptosis induction (caspase assay), potency” value was “more potent in inducing apoptosis”.
AKIEAAILDAFSQNBRKRRRRQRRKKRG [CL05114]: in series [3], the stability in solution entry was “superior stability”.
On to “RKKASSKIAAAILDAFSQNAWANRRSSCKRPPPRRRQRRKKRA (listed as Homo sapiens) [SEQ ID NO: 23]”, for which the stability in solution result in series [3] is listed as “improved stability in solution”.
